The values below come from patent US6660755B2, “Substituted diaryl or diheteroaryl methans, ethers and amines having retinoid agonist, antagonist or inverse agonist type biological activity” (Allergan, Inc., priority 1997, dated 2003).

Structures are written as SMILES.

One assay deals with T1, RARα (Homo sapiens, UniProt P10276).
T1 sequence (P10276 1-462): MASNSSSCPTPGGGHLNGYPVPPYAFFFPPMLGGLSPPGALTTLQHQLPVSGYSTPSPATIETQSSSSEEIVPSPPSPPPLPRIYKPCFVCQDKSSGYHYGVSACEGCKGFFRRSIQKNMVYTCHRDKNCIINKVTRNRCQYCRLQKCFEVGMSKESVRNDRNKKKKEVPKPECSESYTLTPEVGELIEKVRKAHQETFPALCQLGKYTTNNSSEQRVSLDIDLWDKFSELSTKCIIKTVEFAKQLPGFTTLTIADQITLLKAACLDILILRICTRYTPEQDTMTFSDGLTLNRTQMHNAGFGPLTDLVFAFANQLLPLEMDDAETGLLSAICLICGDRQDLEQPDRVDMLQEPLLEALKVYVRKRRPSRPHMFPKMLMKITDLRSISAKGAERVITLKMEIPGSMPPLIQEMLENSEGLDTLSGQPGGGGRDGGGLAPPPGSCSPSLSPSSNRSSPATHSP
The assay can be described thus: Ligand binding assay, RARα. From the text:
(§1) A holoreceptor transactivation assay and a ligand binding assay which measure the antagonist/agonist like activity of the compounds of the invention, or their ability to bind to the several retinoid receptor subtypes, respectively, are described in published PCT Application No. WO WO93/11755 (particularly on pages 30-33 and 37-41) published on Jun. 24, 1993, the specification of which is also incorporated herein by reference. A detailed experimental procedure for holoreceptor transactivations has been described by Heyman et al. Cell 1992, 68, 397-406; Allegretto et al. J. Biol. Chem. 1993 268, 26625-26633, and Mangelsdorf et al. The Retinoids: Biology, Chemistry and Medicine, pp 319-349, Raven Press Ltd., New York, which are expressly incorporated herein by reference. The results obtained in this assay are expressed in EC50 numbers, as they are also in the chimeric receptor transactivation assay. The results of ligand binding assay are expressed in Kd numbers. (See Cheng et al. Biochemical Pharmacology 22, 3099-3108, expressly incorporated herein by reference.) Still another transactivation assay, the “PGR assay” is described in the publication Klein et al. J. Biol. Chem. 1996, 271, 22692-22696, which is expressly incorporated herein by reference, and a detailed description is also provided below. The results of the PGR assay are also expressed in EC50 numbers (nanomolar concentration).

In another assay the target is T2, RARβ (Homo sapiens, UniProt P10826).
T2 sequence (P10826 1-455): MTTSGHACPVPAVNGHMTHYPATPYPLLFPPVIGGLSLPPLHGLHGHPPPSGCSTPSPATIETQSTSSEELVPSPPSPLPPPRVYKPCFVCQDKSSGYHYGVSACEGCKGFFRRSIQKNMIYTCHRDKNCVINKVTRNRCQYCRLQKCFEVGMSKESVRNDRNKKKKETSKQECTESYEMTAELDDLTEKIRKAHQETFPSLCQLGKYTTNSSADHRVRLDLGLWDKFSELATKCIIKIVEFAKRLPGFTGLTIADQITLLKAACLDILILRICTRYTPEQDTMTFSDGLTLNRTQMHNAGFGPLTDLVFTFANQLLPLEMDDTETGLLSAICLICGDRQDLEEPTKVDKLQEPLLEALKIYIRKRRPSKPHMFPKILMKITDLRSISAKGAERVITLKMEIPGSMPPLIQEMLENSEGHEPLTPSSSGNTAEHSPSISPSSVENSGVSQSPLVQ
Put plainly: Ligand binding assay, RARβ. The settings on record: read-out: Kd RABβ.
Text: as §1

For the next assay, the target named is T3, RARγ (Homo sapiens, UniProt P13631).
T3 sequence (P13631 1-454): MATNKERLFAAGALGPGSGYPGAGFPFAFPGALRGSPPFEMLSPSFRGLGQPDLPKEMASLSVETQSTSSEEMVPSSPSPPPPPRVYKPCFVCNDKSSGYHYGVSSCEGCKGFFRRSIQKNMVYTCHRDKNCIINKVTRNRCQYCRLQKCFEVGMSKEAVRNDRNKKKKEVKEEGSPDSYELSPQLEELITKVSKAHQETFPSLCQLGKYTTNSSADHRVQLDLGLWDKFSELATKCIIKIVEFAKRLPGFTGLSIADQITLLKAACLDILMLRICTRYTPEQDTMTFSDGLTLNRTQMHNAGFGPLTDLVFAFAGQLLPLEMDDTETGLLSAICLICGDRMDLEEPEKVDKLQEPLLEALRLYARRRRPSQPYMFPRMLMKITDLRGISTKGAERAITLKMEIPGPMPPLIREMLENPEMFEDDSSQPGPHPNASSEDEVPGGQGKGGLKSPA
The assay can be described thus: Ligand binding assay, RARγ.
Text: as §1

On to `CC(C)(C)c1ccc(C#Cc2ccc(C(=O)O)cc2)cc1Oc1ccc(C(F)(F)F)cc1` [Compound 3, 4-[[4′-tert-Butyl-3′-(4″-trifluoromethyl)phenoxy]phenylethynyl]benzoic Acid], for which the values for the equilibrium dissociation constant (Kd) at RARα, at RARβ and at RARγ were 90 nM, 44 nM and 102 nM, respectively.

For `CCc1ccc(Oc2cc(C#Cc3ccc(C(=O)O)c(F)c3)ccc2C(C)(C)C)cc1` [Compound 25, 4-[[4′-tert-Butyl-3′-(4″-ethyl)phenoxy]phenylethynyl]-2-fluoro-benzoic Acid], the Kd – broadly, the free concentration of one partner at which half of the binding sites on the other are occupied at equilibrium, for simple one-to-one binding – on RARα was 12 nM; at RARβ, 9 nM; at RARγ, 22.5 nM.

Turning to `CC(C)(C)c1ccc(C#Cc2ccc(C(=O)O)c(F)c2)cc1Oc1ccc(I)cc1` [Compound 20, 4-[[4′-tert-Butyl-3′-(4″-iodo)phenoxy]phenylethynyl]-2-fluoro-benzoic Acid], the Kd at RARα came out at 22.5 nM; at RARβ, 16 nM; on RARγ it was 84 nM.

`CC(C)(C)c1ccc(C#Cc2ccc(C(=O)O)c(F)c2)cc1Oc1ccc(C(F)(F)F)cc1` [Compound 4, 4-[[4′-tert-Butyl-3′-(4″-trifluoromethyl)phenoxy]phenylethynyl]-2-fluoro-benzoic Acid]: the Kd was 17 nM on RARα, 14.5 nM on RARβ and 59 nM at RARγ.

Regarding `Cc1ccc(Oc2cc(/C=C/c3ccc(C(=O)O)cc3)ccc2C(C)(C)C)cc1` [Compound 15, 4-[[4′-tert-Butyl-3′-(4″-methyl)phenoxy]phenylvinyl]benzoic Acid], the dissociation constant (Kd) came out at 12.5 nM at RARα, 0.8 nM at RARβ and 33 nM on RARγ.

Turning to `Cc1ccc(Oc2cc(C#Cc3ccc(C(=O)O)c(F)c3)ccc2C(C)(C)C)cc1` [Compound 26, 4-[[4′-tert-Butyl-3′-(4″-methyl)phenoxy]phenylethynyl]-2-fluoro-benzoic Acid], the Kd at RARα came out at 11 nM; on RARβ it was 10 nM; at RARγ, 17 nM.

`CC(C)(C)c1ccc(C#Cc2ccc(C(=O)O)c(F)c2)cc1Oc1ccc(N=[N+]=[N-])cc1` [Compound 17, 4-[[4′-tert-Butyl-3′-(4″-azido)phenoxy]phenylethynyl]-2-fluoro-benzoic Acid]: the Kd is 20 nM on RARα, 24 nM at RARβ and 18 nM at RARγ.

As to `Cc1ccc(Oc2cc(C#Cc3ccc(C(=O)O)cc3)ccc2C(C)(C)C)cc1` [Compound 30, 4-[[4′-tert-Butyl-3′-(4″-methyl)phenoxy]phenylethynyl]benzoic Acid], the Kd on RARα stood at 48 nM; on RARβ it was 13 nM; at RARγ, 41 nM.

In the case of `CC(C)(C)c1ccc(/C=C/c2ccc(C(=O)O)cc2)cc1Oc1ccc(C(F)(F)F)cc1` [Compound 22, 4-[[4′-tert-Butyl-3′-(4″-trifluoromethyl)phenoxy]vinyl]benzoic Acid], the dissociation constant (Kd) stood at 17 nM at RARα, 36 nM at RARβ and 162 nM at RARγ.
